Experimental data reported in patent US20170304336A1, “COMBINATION” (priority 2014, published 2017).
Where “and” joins values, the source holds several entries; their conditions need not be identical. Equal values may be shown once.

Experiments:
[1] = Mass coefficients of organs (pancreas, liver, kidneys) of rats; type: in vivo, male rats of Wistar line; conditions: for weight coefficient, Kidneys / weight coefficient, Liver: in %
Protocol: To calculate mass coefficients the pancreas, liver and kidneys of the animals were extracted. The organs were weighed and the mass coefficients were calculated by the following formula:
Mass coefficient=(organ weight/animal body weight)×100%

[2] = test system: experimental rat hypercholesterolemia model; assay: Biochemical blood analysis (drug toxicity parameters) in rat hypercholesterolemia model; type: in vivo, male rats of Wistar line
Protocol: (§1) Evaluation of hypocholesterolemic efficacy and safety of pharmaceutical combination was performed in vivo in experimental rat hypercholesterolemia model.
(§2) For 90 days the studied animals received hypercholesterol diet for pathology induction. The diet included Cholesterol+Cholic acid+Overheated fats (deep fat).
(§3) Drugs were introduced intragastrically with an esophageal bougie daily on Day 31-90 of the study at the same time of day.
Biochemical parameters and activity of serum enzymes (aspartate- and alanine aminotransferase, creatine phosphokinase, urea, serum amylase, total bilirubin, direct bilirubin, indirect bilirubin, serum glucose, cations K^+, Na^+).
1.0-1.84 ml blood samples for the study of biochemical parameters were taken from tail vein of rats. Blood samples were taken from the animals after 14-15-hour's fasting at same time of day (9.00-11.00). For biochemical parameters tests a Biochemical Analyzer A-25 (Biosystems, Spain) was used.
Vol. 4. pp. 1794-1798; Pearlman F C and Lee R T Y. Clin Chem 1974, 20, 447-453; Zoppi F et al, Peracino A., Fenili D., Marcovina S. and Ramella C. Giorn It Chim Cl. […] C. et al Clin Chem. 1974. Vol. 20. pp. 470-475; and in Meiattini F., et al, Clin Chem. 1978. Vol. 24. pp. 2161-2165 (total cholesterol); Warnick G R et al. Clin Chem 2001, 47, 1579-96 (HDL/LDL); Bucolo G and David H. Clin Chem. 1973.-Vol. 19. pp. 476-482; and in Fossati P. and, Prencipe L., Clin Chem. 1982. Vol. 28. pp. 2077-2080 (triglycerides); Trinder P. Ann Clin Biochem. 1969. Vol. 6. pp. 24-27).

[3] = test system: experimental rat hypercholesterolemia model; assay: Lipid spectrum of blood in experimental rat hypercholesterolemia model; type: in vivo, male rats of Wistar line; conditions: dose 108 mg
Protocol: The animals used were male rats of Wistar line. […] The proposed model using rats as the experimental animals is a reproducible standard model for evaluation of hypocholesterolemic effect.
as §1, §2
For 90 days the animals received the said ration ad libitum (30 g feed per animal). Development of hypercholesterolemia in animals was evaluated based on changes in lipid spectrum parameters on Day 30 of the study.
as §3
Biochemical parameters and activity of blood serum enzymes (total cholesterol (CHS), LDL-CHS, HDL-CHS, triglycerides.
1.0-1.84 ml blood samples for the study of biochemical parameters were taken from tail vein of rats. Blood samples were taken from the animals after 14-15-hour's fasting at same time of day (9.00-11.00). For biochemical parameters tests a Biochemical Analyzer A-25 (Biosystems, Spain) was used. […]

[4] = Dynamics of body weight of rabbits (Schemes A and B); type: in vivo, male rabbits of Californian breed; conditions: for Body weight: Scheme A, M ± SEM
Source text: The animals used in this experiment were involved reproductive male rabbits of Californian breed. 144 rabbits were used. The weight of the animals at the beginning of the trial ranged from 2.5 to 3 kg; the animals were 8 weeks old. Before the study the laboratory animals were contained for 27 and for 37 days in the separate coops for adaptation. During this period, clinical condition of animals was controlled every day by visual inspection. The criteria of the inclusion of animals in the experiment were health and body weight.
The introduction of drugs under two schemes was used to determine the mechanism of action of the studied drugs and the impact on the different stages of atherosclerosis.
Cholesterol administered daily in an oil solution at 0.3 g/kg of animal body weight, one time, 4 hours after drug administration. Cholesterol was dissolved in hot sunflower oil and administered to the animals through noninvasive probe into the stomach. The duration of administration amounted cholesterol from 1 to 90 days in subgroup A and 1 to 120 days in subgroup B. 2. After 30 days from the initiation of administration of cholesterol vitamin D3 (cholecalciferol) in a dose of 0.256 ml/kg was added to the diet of animals to enhance aortic lipidosis. Cholecalciferol was administered intragastrically via a probe from 31 till 60 days (Scheme A and B). […] In order to gain atherosclerotic lesions in aorta and atherosclerosis induction time reduction the animals were administered a dose of epinephrineequal to 0.04 mg/kg intravenously since 31 till 60 every five days (Scheme A and B).
Animal body weight was measured in accordance with standard procedures prior to the study, then—weekly (for calculating the volume of administration of the test compound and the reference drug) and immediately before euthanasia (on days 60 and 120)—to calculate the weight gain.
The administration was carried out intragastrically in accordance with standard procedures using atraumatic probe according to two treatment regimens every day at the same time.

[5] = Mass coefficients of liver and pancreas of rabbits; type: in vivo, male rabbits of Californian breed; conditions: for Mass ratios, M ± SEM, Liver / Mass ratios, M ± SEM, Pancreas: dose 100 mg; for pancreatic mass coefficients relative to the control group: rosuvastatin 40 mg, AGA 100 mg
[6] = (organ weight/animal body weight)×100%, Day 90 of study, dose 108 mg
[7] = M ± m, RV + AGA 10 + 108 mg, RV 10 mg, AGA 108 mg
[8] = Day 30 of treatment (Day 60 of study), dose 108 mg
[9] = blood, Day 60 of the treatment (Day 90 of the study), RV + AGA 10 + 108 mg, RV 10 mg, AGA 108 mg
[10] = blood, Day 60 of the treatment (Day 90 of the study), SV + AGA 20 + 108 mg, SV 20 mg, AGA 108 mg
[11] = Day 30 of treatment (Day 60 of study)
[12] = Day 60 of treatment (Day 90 of study)

With `CC1(C)[C@@H](O[C@H]2O[C@H](C(=O)O)[C@@H](O)[C@H](O)[C@H]2O[C@@H]2O[C@H](C(=O)O)[C@@H](O)[C@H](O)[C@H]2O)CC[C@]2(C)[C@H]3C(=O)C=C4[C@@H]5C[C@@](C)(C(=O)O)CC[C@]5(C)CC[C@@]4(C)[C@]3(C)CC[C@@H]12.N` [AGA, Monoammonium glycyrrhizinate] the “weight coefficient, Pancreas” value [1, 6] was 0.21 ± 0.01^2, the “weight coefficient, Kidneys” value [1, 6] was 0.81 ± 0.02 and the “weight coefficient, Liver” value [1, 6] was 4.40 ± 0.09. The “weight coefficient, Pancreas” value [1, 7] was 0.22 ± 0.01^2, the “weight coefficient, Kidneys” value [1, 7] was 0.81 ± 0.01 and the “weight coefficient, Liver” value [1, 7] was 4.41 ± 0.08. The ALT [2, 8] was 98 U/l, the AST [2, 8] was 130 U/l and the Amylase [2, 8] was 620 U/l. For the same molecule, the Bilirubin direct [2, 8] was 2.1 mg/dL, the Bilirubin indirect [2, 8] was 1.8 mg/dL and the Bilirubin total [2, 8] was 4.1 mg/dL. For the same molecule, the CPK [2, 8] was 310 U/l and 312 U/l, the Glucose [2, 8] was 112 mg/dL and the Potassium [2, 8] was 2.7 mM. The Sodium [2, 8] was 120 mmol, the Urea [2, 8] was 6.8 mmol/L and the ALT [2, 9] was 100 U/l. The AST [2, 9] was 131 U/l, the Amylase [2, 9] was 600 U/l and the Bilirubin direct [2, 9] was 2.3 mg/dL. It also gave a Bilirubin indirect [2, 9] of 1.9 mg/dL, a Bilirubin total [2, 9] of 2.9 mg/dL and a CPK [2, 9] of 310 U/l. The Glucose [2, 9] was 110 mg/dL, the Potassium [2, 9] was 3.2 mM and the Sodium [2, 9] was 122 mmol. For the same molecule, the Urea [2, 9] was 5.5 mmol/L, the ALT [2, 10] was 100 U/l and the AST [2, 10] was 131 U/l. It also gave an Amylase [2, 10] of 600 U/l, a Bilirubin direct [2, 10] of 2.3 mg/dL and a Bilirubin indirect [2, 10] of 1.9 mg/dL. It also gave a Bilirubin total [2, 10] of 2.9 mg/dL, a CPK [2, 10] of 310 U/l and a Glucose [2, 10] of 110 mg/dL. It also gave a Potassium [2, 10] of 3.2 mM, a Sodium [2, 10] of 122 mmol and a Urea [2, 10] of 5.5 mmol/L. The “HDL CHS” value [3, 11] was 0.53 ± 0.05 mmol/L, the “LDL CHS” value [3, 11] was 4.40 ± 0.4 mmol/L and the TG [3, 11] was 1.5 ± 0.11 mmol/L. For the same molecule, the “Total CHS” value [3, 11] was 5.8 ± 0.5 mmol/L, the “HDL CHS” value [3, 12] was 0.63 ± 0.05 mmol/L and the “LDL CHS” value [3, 12] was 3.80 ± 0.3 mmol/L. The TG [3, 12] was 1.30 ± 0.12 mmol/L, the “Total CHS” value [3, 12] was 4.5 ± 0.4 mmol/L and the Body weight ([4]; Day 0 (Before the study), dose group 100 mg (Table 37)) was 2936 ± 150 g. The Body weight ([4]; Day 28 (in the setting of pathology without treatment), dose group 100 mg (Table 37)) was 3369 ± 168 g, the Body weight ([4]; Day 90 (in the setting of pathology with treatment), dose 100 mg (Table 37)) was 3955 ± 119 g and the “body weight versus control animals” value ([4]; Scheme B, day 120, rosuvastatin+AGA 20+200 mg, atorvastatin+AGA 20+100 mg, AGA 100 mg) was “significantly lower”. For the same molecule, the “Body weight, M ± SEM, Day 120 (in the setting of pathology with treatment)” value ([4]; Scheme B, dose 100 mg) was 4150 ± 144^2 g, the “Body weight, M ± SEM, Day 0 (Before the study)” value ([4]; Scheme B, dose 100 mg, baseline) was 2809 ± 145 g and the “Body weight, M ± SEM, Day 56 (in the setting of pathology without treatment)” value ([4]; Scheme B, dose 100 mg, before treatment) was 3569 ± 164 g. The “Mass ratios, M ± SEM, Liver” value ([5]; Scheme A) was 3.3 ± 0.1, the “Mass ratios, M ± SEM, Pancreas” value ([5]; Scheme A) was 0.05 ± 0.003 and the “pancreatic mass coefficients relative to the control group” value ([5]; Scheme A) was “Statistically significant decrease”. The “Mass ratios, M ± SEM, Liver” value ([5]; Scheme B) was 3.0 ± 0.2, the “Mass ratios, M ± SEM, Pancreas” value ([5]; Scheme B) was 0.06 ± 0.004^ and the “pancreatic mass coefficients relative to the control group” value ([5]; Scheme B) was “statistically significant decrease”.
